Experimental data published in US9029414B2, “Triterpenoid compounds and methods of use thereof” (Biotechnology Research Corporation, priority 2008, dated 2015).

Columns and labels:
cortical neurons = experiment: Cortical neuron survival assay against amyloid beta peptide excitotoxicity (MTT); type: cell-based, Sprague-Dawley rats; set-up: key: black bars represent compounds with strong protective effect; striped bars represent compounds with moderate effect; light-dotted bars represent compounds without or with effect less than 25%; details: compounds 2 hours prior to co-treatment with Aβ25-35 (10 μM) 24 hours
Description: FIG. 14. Derivatives of DA001 protect the cortical neurons from Aβ25-35 excitotoxicity. Cortical neurons were incubated with compounds (at various [μM]) derived from of DA001 2 hours prior to co-treatment with Aβ25-35 (10 μM) for 24 hours. 3-(4,5-Dimethylthiazol-2-yl)-2,5-diphenyltetrazolium bromide (MTT) assay was performed 24 hours after Aβ25-35 treatment. Data are expressed as mean fold change±s.e.m. compared to solvent control (DMSO). Dark-dotted bar represents data without addition of Aβ25-35, open bar represents solvent control, black bars represent compounds with strong protective effect while striped bars represent compounds with moderate effect, light-dotted bars represent compounds without or with effect less than 25%. *=P<0.05, **=P<0.005.
Cortical neurons were prepared from embryonic day 18 Sprague-Dawley rats. After the cortices had been removed from the brain, isolated cells were plated onto Poly d-Lysine (PDL) (P0899, Sigma)-coated 48 well plates (150687, NUNC) at a density of 1×10^5 cell per well using Neurobasal Medium (NB) (21103-049, Gibco) with B27 supplement (17504-044, Gibco), penicillin/streptomycin (15140, Gibco) and 1 mM L-glutamine (25030, Gibco). The cell culture was incubated at 37° C. in a humidified atmosphere of 5% CO2 in air. Medium was changed to growth medium (Neurobasal Medium with penicillin/streptomycin and B27 supplement) after 3 hours. Half medium was changed with growth medium every 2-3 days to maintain the cells until day 7 in vitro (7 DIV). Serial dilutions of samples were prepared in growth medium and DMSO was used as vehicle control. For pre-treating part, half of the medium was removed from wells, and equal amount of diluted samples were replaced. Cells were then incubated for 2 hours at 37° C. in a humidified atmosphere of 5% CO2 in air. Cortical neurons were then incubated with DA001 derived compounds (at various concentrations in [μM]) together with Aβ25-35 (10 μM, Sigma) for 24 hours. Quantification of living cells are measured by MTT (3-(4,5-Dimethylthiazol-2-yl)-2,5-diphenyltetrazolium bromide, USB) assay performed 24 hours after Aβ25-35 treatment. Yellow MTT is reduced to purple formazan in the mitochondria of living cells. A solubilization solution [10% SDS (sodium dodecyl sulfate)/0.01 M hydrochloric acid] is added to dissolve the insoluble purple formazan product into a colored solution which was then quantified at wavelength 570 nm using a spectrophotometer (DYNEX Technologies).
A total of 90 derivatives of DA001 were synthesized, and their effect on cortical neurons survival against amyloid beta peptide (Aβ25-35) excitotoxicity was examined. […] Compounds with strong protective effect are DA002, DA005, DA007, DA016, DA018, DA019, DA042, DA044, DA060 and DA072.

[1] = system: C57BL/6 mice immunized with MOG; experiment: Experimental autoimmune encephalomyelitis (EAE) behavioral scores; type: in vivo; details: 100 mg/kg oral daily from day of immunization
Description: FIG. 15 illustrates that DA001 improves the behavioral scores of mice with experimental autoimmune encephalomyelitis. C57BL/6 mice were immunized subcutaneously at both sides of their hind limbs with myelin oligodendrocyte glycoprotein (MOG)/Complete Freund's Adjuvant (CFA) kit (Hooke Laboratories) and performed as indicated in the manufacturer's instruction. Albumin/CFA kit (Hooke Laboratories) were used as an immunization control. Oral administration of DA001 at 100 mg/kg was given daily starting from the day of immunization. The vehicle (water) was given to mice injected with MOG or albumin daily via oral administration. Animals were weighed and monitored daily and behavioral impairment was quantified based on the clinical scale. The graph presented here is a composite of four separate EAE trials. **=p≦0.01.
FIG. 16 illustrates that DA002 improves the behavioral scores of mice with experimental autoimmune encephalomyelitis. C57BL/6 mice were immunized subcutaneously at both sides of their hind limbs with myelin oligodendrocyte glycoprotein (MOG)/Complete Freund's Adjuvant (CFA) kit (Hooke Laboratories) and performed as indicated in the manufacturer's instruction. […] Animals were weighed and monitored daily and behavioral impairment was quantified based on the clinical scale. *=p≦0.05.
C57BL/6 mice were immunized subcutaneously at both sides of their hind limbs with myelin oligodendrocyte glycoprotein (MOG)/Complete Freund's Adjuvant (CFA) kit (Hooke Laboratories) and performed as in manufacturer's instruction. […] Animals were weighed and monitored daily and behavioral impairment was quantified based on the clinical scale. […]
On day 0, six-week old male C57BL/6 mice (Hong Kong University of Science and Technology, Animal Care facility) were immunized with 100 μg of myelin oligodendrocyte glycoprotein peptide (MOG35-55)/complete Freund's Adjuvant (CFA) emulsion kit (Hooke Laboratories) was injected subcutaneously at both sides of the tail base. […] The animals were also weighed and the neurological impairment was quantified daily based on the previously published criteria. […]

BALB/c mice = experiment: Murine model of oxazolone-induced ear edema; type: in vivo; details: topical, positive control
Description: This is a contract research performed by Washington Biotechnology Inc., Columbia, Md., protocol 1041. On day 0, 42 BALB/c mice (female, Harlan Sprague-Dawley, 5-6 weeks) were shaved on the ventral surface of the right ear. 100 μl of the 5% oxazolone solution (Sigma) was then applied to the saved ear. The treated mice were then returned to the cage and kept for additional 6 days. On day 7, the mice were weighed and dosed orally with 10 ml/kg water or DA021 at either 30 mg/kg or 100 mg/kg or topically applied on both sides of both ears with 25 μl betamethasone. Thirty minutes after oral dosing, 5 μl of 3% oxazolone was applied to both sides of the right ear and 5 μl of acetone was applied to both sides of the contralateral ear. Twenty-four hours after 3% oxazolone/acetone application, the mice were euthanized, the ears removed and weighed.
To evaluate the efficacy and potency of DA021 in acute inflammation, an oxazolone-induced ear edema model was carried out in mice. Oxazolone-induced ear edema model is a commonly used skin inflammatory animal model. Oxazolone (OA) is an allergen that induces immunological responses that lead to surface edema. […] Betamethasone (BMS) which was used as a positive control, is a corticosteroid that is used as an anti-itching cream and other anti-inflammatory remedies.
Mice were then treated with betamethasone (BMS, mg, topical) or DA021 (mg/kg, p.o.) and the ears were removed and weighed. N=10 per group, significance (p-value) was calculated versus OA+vehicle using the Student's T-test, *=P≦1×10^−7, #=P≦1×10^−12.

[2] = system: LPS-induced TNF-α in serum; experiment: Murine model of lipopolysaccharide-induced cytokine production; type: in vivo, Swiss-Webster mice; details: 10 mg/kg orally, positive control
Description: This is a contract research performed by Washington Biotechnology Inc., Columbia, Md., protocol 1077. Swiss-Webster mice (female, Harlan Sprague-Dawley, 5-6 weeks) were weighed and dosed orally with 10 ml/kg water, prednisolone at 10 mg/kg, or DA021 at 30 mg/kg or 100 mg/kg. Thirty minutes after oral dosing, lipopolysaccharides (LPS) at 2 mL/kg was injected. Two hours after LPS injection, the mice were anesthetized and exsanguinated into serum separator micro-container tubes. The blood was processed to serum. The serum samples were assayed for tumor necrosis factor-α (TNFα) concentration by ELISA (Pierce) according to the manufacturer's protocol.
Evaluation of the efficacy and potency of orally administered DA021 to inhibit the lipopolysaccharide (LPS)-induced release of tumor necrosis factor-α (TNF-α) in mice was carried out. LPS is a widely used endotoxin, isolated from the bacteria, E. coli in inducing acute inflammation in an organism. Prednisolone is a synthetic corticosteroid drug that is commonly used in inflammatory reactions. It is a broad range immunosuppressant. Based on FIG. 29, there was a marked increase in the amount of TNF-α in serum upon LPS treatment in mice.
Two hours after LPS injection, the serum was collected from the mice. The serum samples were assayed for tumor necrosis factor-α (TNFα) concentration by ELISA (Pierce) according to the manufacturer's protocol. N=10, significance was calculated versus LPS+vehicle using the Student's T-test, *=p≦0.05, #=p≦1×10^−4.

`C=C(C)[C@@H]1CC[C@]2(C(=O)O)CC[C@]3(C)C(CCC4[C@@]5(C)CC[C@H](O[C@@H]6OC[C@H](OC(C)=O)[C@H](OC(C)=O)[C@H]6O[C@@H]6O[C@@H](C)[C@H](OC(C)=O)[C@@H](OC(C)=O)[C@H]6OC(C)=O)[C@@](C)(COC(C)=O)[C@@H]5CC[C@]43C)C12` (stereo partly shown) [DA044] was tested, and the “protective effect against Aβ25-35 excitotoxicity” value (shortened to “protective effect”) (cortical neurons) was “strong”.
In the case of `C=C(C)[C@@H]1CC[C@]2(C(=O)O)CC[C@]3(C)C(CCC4[C@@]5(C)CC[C@H](O)[C@@](C)(CO)[C@@H]5CC[C@]43C)C12` (stereo partly shown) [DA002], the “protective effect” value (cortical neurons) is reported as “strong” and the “EAE scores vs vehicle-treated EAE mice” value [1] is reported as “significant decrease in the EAE scores”.
`C=C(C)[C@@H]1CC[C@]2(C(=O)O)CC[C@]3(C)C(CCC4[C@@]5(C)CC[C@H](OC(C)=O)[C@@](C)(CO)[C@@H]5CC[C@]43C)C12` (stereo partly shown) [DA007] was tested, and the “protective effect” value (cortical neurons) was “strong”.
With `C[C@H]1C[C@H]2[C@@H]3CCC4=CC(=O)C=C[C@]4(C)[C@@]3(F)[C@@H](O)C[C@]2(C)[C@@]1(O)C(=O)CO` [Betamethasone, reference compound] the “Change in Ear Weight (mg), Average” value (BALB/c mice) was 17.4 mg and the “Change in Ear Weight, % Inhibition” value (BALB/c mice) was 75.4%.
`C=C(C)[C@@H]1CC[C@]2(C(=O)O)CC[C@]3(C)C(CCC4[C@@]5(C)CC/C(=N\O)[C@@](C)(CO)[C@@H]5CC[C@]43C)C12` (stereo partly shown) [DA019] was tested, and the “protective effect” value (cortical neurons) was “strong”.
`C=C(COC(C)=O)[C@@H]1CC[C@]2(C(=O)O)CC[C@]3(C)C(CC[C@@H]4[C@@]5(C)CC[C@H](OC(C)=O)[C@@](C)(COC(C)=O)[C@@H]5CC[C@]43C)[C@@H]12` (stereo partly shown) [DA060, 3,23,30-Triacetoxy-betulinic acid] was tested, and the “protective effect” value (cortical neurons) was “strong”.
With `C=C(C)[C@@H]1CC[C@]2(C(=O)O)CC[C@]3(C)C(CCC4[C@@]5(C)CCC(=O)[C@@](C)(COC(C)=O)[C@@H]5CC[C@]43C)C12` (stereo partly shown) [DA016] the “protective effect” value (cortical neurons) was “strong”.
In the case of `C=C(C)[C@@H]1CC[C@]2(C(=O)O)CC[C@]3(C)C(CCC4[C@@]5(C)CCC(=O)[C@@](C)(CO)[C@@H]5CC[C@]43C)C12` (stereo partly shown) [DA018], the “protective effect” value (cortical neurons) is reported as “strong”.
In the case of `C=C(C)[C@@H]1CC[C@]2(C(=O)NCc3ccccc3)CC[C@]3(C)C(CCC4[C@@]5(C)CC[C@H](O)[C@@](C)(CO)[C@@H]5CC[C@]43C)C12` (stereo partly shown) [DA042], the “protective effect” value (cortical neurons) is reported as “strong”.
With `C=C(CNCc1ccccc1)[C@@H]1CC[C@]2(C(=O)O)CC[C@]3(C)C(CC[C@@H]4[C@@]5(C)CC[C@H](OC(C)=O)[C@@](C)(COC(C)=O)[C@@H]5CC[C@]43C)[C@@H]12` (stereo partly shown) [DA072, 30-N-Benzylamino-3,23-diacetoxy-betulinic acid] the “protective effect” value (cortical neurons) was “strong”.
With `C[C@]12C=CC(=O)C=C1CC[C@@H]1[C@@H]2[C@@H](O)C[C@@]2(C)[C@H]1CC[C@]2(O)C(=O)CO` [Prednisolone, reference compound] the “LPS-induced TNF-α level” value [2] was “dramatically decreased”.
